System: COS 5-7 cells
Assay: Uptake after one minute of chemically induced low pH (HCl added to HBSS suspension), FACS
Type: cell-based, African green monkey
Details: for Folds Uptake mean: 1 min, 10 μM Dextran-FITC
Method: The following tables show a connection between pH and current. […] The values in the tables are shown as folds relative to the uptake in cells unexposed to any of the treatments. […] The results are expected to be substantially independent of cell type and molecule used, except for a cell-specific change and a molecule specific change.
Cells (COS 5-7) were harvested, re-suspended in DMEM (1 mg/ml glucose, 5% FCS), and incubated (37°, 5% CO2) as designated by the experiment. For uploading the cells with either H2DCF-DA (20 μM) or Bis-DHA (1 mM) incubation lasted 90 minutes. When no pre-treatments were required, the cells were kept in the DMEM for 30 minutes. Following incubation, the cells were centrifuged at 400g for 1 min, the solution aspirated, and cells re-suspended in HBSS exposure media.
Exposure of cells to pulse acidification was through the addition of HCl to the HBSS suspension for 60 seconds, terminated by the addition of a three fold larger volume of DMEM-H.
Cell suspensions were centrifuged (400g for one minute), their solutions aspirated and they were re-suspended with 0.5 ml DMEM-H supplemented with 10u/ml dextranase (Sigma-Aldrich) for 10 minutes at RT. Cells were centrifuged again; their solution aspirated and they were re-suspended with 0.2 ml DMEM-H. PI (25 μg/ml) as a label for permeabilized cells and tryphan blue (0.01% w/v) as a fluorescence quenching agent for extracellular FITC (36) were added to each sample shortly before analysis
Flow cytometry analysis was carried out by FACSort (Becton @ Dickson, San Jose, Calif.), employing a 488-nm argon laser excitation. The green fluorescence of FITC was measured via 530/30 nm filter, the red fluorescence of PI was detected via a 585/42 nm filter. […] Ten thousand cells were examined for each sample and data were collected in the list mode. The analysis of flow cytometry data was performed using WINMDI 2.9 software (Joe Trotter, The Scripps Research Institute). For each sample the geometrical mean was calculated without including PI stained cells. Cell intensity was determined as fold of induction relative to cells' constitutive uptake.
After one minute incubation, cell suspensions were immediately diluted with 3 fold larger volume of cold buffered DMEM to restore pH to a normal pH of 7.5.

Substance: Dextran-FITC
- Folds Uptake mean (pH 1.6, relative to unexposed cells): 48.09 folds
- Folds Uptake mean (pH 1.9, relative to unexposed cells): 42.47 folds
- Folds Uptake mean (pH 2.5, relative to unexposed cells): 47.62 folds
- Folds Uptake mean (pH 2.9, relative to unexposed cells): 45.54 folds
- Folds Uptake mean (pH 3.1, relative to unexposed cells): 41.25 folds
- Folds Uptake mean (pH 3.3, relative to unexposed cells): 20.14 folds
- Folds Uptake mean (pH 3.5, relative to unexposed cells): 9.575 folds
- Folds Uptake mean (pH 3.7, relative to unexposed cells): 7.679 folds
- Folds Uptake mean (pH 4, relative to unexposed cells): 4.776 folds
- Folds Uptake mean (pH 4.7, relative to unexposed cells): 3.856 folds
- Folds Uptake mean (pH 5, relative to unexposed cells): 2.594 folds
- Folds Uptake mean (pH 5.8, relative to unexposed cells): 2.636 folds
- Folds Uptake mean (pH 6, relative to unexposed cells): 1.483 folds
- Folds Uptake mean (pH 6.25, relative to unexposed cells): 1.619 folds
- Folds Uptake mean (pH 7.4 (reference)): 1 folds
- pH at which uptake reaches saturation (steep elevation of uptake starting at pH 4): 3 pH

Reference: patent US20130004581A1, “CONTROLLING UPTAKE BY CELLS” (Ramot at Tel-Aviv University Ltd., priority 2010, published 2013)
